Results from ChEMBL document CHEMBL5226309, “Synthetic RNA Modulators in Drug Discovery” (J Med Chem, 2021).

Experiments:
[1] = Upregulation of miR-122 expression in human Huh-7 cells at 10 uM incubated for 48 hrs by RT-PCR analysis relative to control; type: functional
[2] = biological target: T1, Muscleblind-like protein 1 (Homo sapiens) (UniProt Q9NR56); assay: Inhibition of MBNL1 (unknown origin) in human GDM-1 cells assessed as rescue of IR exon splicing defect at 100 pM by PCR analysis relative to control; type: cell-based
T1 sequence (whole entry): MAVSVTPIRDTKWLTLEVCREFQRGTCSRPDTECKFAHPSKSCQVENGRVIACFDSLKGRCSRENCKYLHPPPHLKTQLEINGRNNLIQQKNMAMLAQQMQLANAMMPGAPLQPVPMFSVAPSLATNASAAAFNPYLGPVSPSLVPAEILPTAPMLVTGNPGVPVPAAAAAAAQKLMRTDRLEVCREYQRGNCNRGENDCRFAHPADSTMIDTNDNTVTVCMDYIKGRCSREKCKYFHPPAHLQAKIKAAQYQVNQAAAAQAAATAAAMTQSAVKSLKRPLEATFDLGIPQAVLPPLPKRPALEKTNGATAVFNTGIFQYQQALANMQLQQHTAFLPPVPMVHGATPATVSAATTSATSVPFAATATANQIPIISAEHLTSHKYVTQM

AGS [3] = assay: Inhibition of miR-21 in human AGS cells assessed as decrease in pre-miR-21 level relative to control; type: cell-based; details: dose or concentration not given here
[4] = Inhibition of miR-21 in human AGS cells assessed as decrease in pre-miR-21 level; type: cell-based
[5] = Displacement of Tat from TAR mRNA by FRET analysis
[6] = Binding affinity to TAR mRNA assessed as dissociation constant by ITC analysis
[7] = Binding affinity to miR-21 (unknown origin) at 5 uM by differential scanning fluorometry analysis relative to control
[8] = Binding affinity to miR-21 (unknown origin) assessed as dissociation constant
[9] = Inhibition of miR-21 (unknown origin) at 1 uM by differential scanning fluorometry analysis relative to control
MDA-MB-231 = assay: Inhibition of miR-21 in human MDA-MB-231 cells assessed as decrease in pre-miR-21 level at 50 nM relative to control; type: cell-based
[10] = Inhibition of miR-21 in human MDA-MB-231 cells; type: cell-based
A549 = assay: Inhibition of miR-21 in human A549 cells assessed as decrease in pre-miR-21 level at 50 nM relative to control; type: cell-based
A-375 = assay: Inhibition of miR-21 in human A-375 cells assessed as decrease in pre-miR-21 level at 50 nM relative to control; type: cell-based
HEK293 [11] = assay: Inhibition of miR-125a in human HEK293 cells relative to control; type: cell-based; details: dose or concentration not given here
HeLa [12] = assay: Induction of apoptosis in human HeLa cells; type: functional
[13] = Induction of apoptosis in human U-87 MG cells; type: functional, U-87MG ATCC
[14] = Downregulation of alpha-Synuclein level in human SH-SY5Y cells at 5 uM relative to control; type: functional
HEK293 [15] = assay: Inhibition of miR-125a in human HEK293 cells assessed as increase in pre miR-21 level at 50 uM relative to control; type: cell-based
HEK293 [16] = assay: Inhibition of miR-125a in human HEK293 cells assessed as increase in mature miR-21 level at 50 uM relative to control; type: cell-based
A498 = assay: Antiproliferative activity against human A498 cells assessed as reduction in cell viability by XTT assay; type: functional, cell-based
HeLa [17] = assay: Inhibition of miR-21 in human HeLa cells assessed as reduction in relative light unit at 10 uM by luciferase reporter assays relative to control; type: cell-based
[18] = Antiproliferative activity against human U87 cells assessed as reduction in cell viability by XTT assay; type: functional, cell-based, U-87MG ATCC; details: U-87 MG
AGS [19] = assay: Antiproliferative activity against human AGS cells assessed as reduction in cell viability at 25 uM measured after 4 days by CellTiter96 assay relative to control; type: functional; details: 96 h, time 4 day
[20] = Inhibition of 5'FAM-labeled and 3'DAB-labeled Precursor microRNA-373 (unknown origin) assessed as inhibition of Dicer-induced pre-miR-373 cleavage by measuring fluorescence incubated for 30 min in presence of human recombinant Dicer by FRET Dicer assay
[21] = Inhibition of 5'FAM-labeled and 3'DAB-labeled Precursor microRNA-372 (unknown origin) assessed as inhibition of Dicer-induced pre-miR-372 cleavage by measuring fluorescence incubated for 30 min in presence of human recombinant Dicer by FRET Dicer assay
Hepatitis C virus = assay: Antiviral activity against HCV JFH-1 infected in human Huh-7 cells assessed as reduction in viral replication measured after 48 hrs by RT-PCR analysis relative to control; type: functional, Hepacivirus hominis; parameters: scale not given: the % may be the effect or the level left
[22] = Downregulation of miR-122 expression in human Huh-7 cells at 10 uM incubated for 48 hrs by RT-PCR analysis relative to control; type: functional
[23] = Induction of mRNA mediated IPRF assessed as increase in frame shifting efficiency at 10 uM in presence of M2-VPK sequence relative to control
HeLa [24] = assay: Induction of mRNA mediated IPRF in human HeLa cells assessed as increase in frame shifting efficiency at 10 uM in presence of F-VPK sequence relative to control; type: cell-based
[25] = Induction of mRNA mediated IPRF assessed as increase in frame shifting efficiency at 10 uM relative to control
HeLa [26] = assay: Induction of mRNA mediated IPRF in human HeLa cells assessed as increase in frame shifting efficiency at 0.3 uM in presence of M1-FPK sequence relative to control; type: cell-based
HeLa [27] = assay: Induction of mRNA mediated IPRF in human HeLa cells assessed as increase in frame shifting efficiency at 0.3 uM in presence of M2-FPK sequence relative to control; type: cell-based
[28] = Binding affinity to miR-21 (unknown origin) assessed as dissociation constant by fluorescence based analysis
[29] = Binding affinity to HIV-1 mRNA assessed as dissociation constant; parameters: species or system Human immunodeficiency virus 1
[30] = Binding affinity to pre-miR-21 (unknown origin) assessed as dissociation constant by Monolith NT.115 microscale thermophoresis based analysis
[31] = Binding affinity to Precursor microRNA-372 (unknown origin) assessed as dissociation constant
[32] = Inhibition of Precursor microRNA-372 (unknown origin) assessed as inhibition of Dicer-induced pre-miR-372 cleavage
[33] = Inhibition of miR-21 (unknown origin) maturation assessed as reduction in pre-miR-21 expression at 10 uM by RT-PCR analysis relative to control
[34] = Inhibition of miR-21 (unknown origin) by luciferase reporter assays relative to control; details: concentration not given here

## CN(C)CCN1C(=O)c2cccc3cc(N)cc(c23)C1=O [AMONAFIDE]
[1]
  Activity: 450%

## C#CC(=O)NCCCCCC(=O)N(CCN(C)C(=O)CCCOc1cccc(-c2nc3ccc(-c4nc5ccc(N6CCN(C)CC6)cc5[nH]4)cc3[nH]2)c1)CC(=O)N(C)[C@@H](C)C(=O)N(C)[C@@H](C)C(=O)N(C)[C@@H](C)C(=O)N(CCCCN(C)C(=O)CCCOc1cccc(-c2nc3ccc(-c4nc5ccc(N6CCN(C)CC6)cc5[nH]4)cc3[nH]2)c1)CC(=O)N(CCCN=[N+]=[N-])CC(N)=O
[2]
  inhibition: 100%

## CC(=O)Nc1csc(-c2cccc(NC(=O)CCc3cn(C[C@H]4O[C@@H](O[C@@H]5[C@@H](O)[C@H](N)C[C@H](N)[C@H]5O[C@H]5O[C@H](CN)[C@@H](O)[C@H](O)[C@H]5N)[C@H](O)[C@@H]4O[C@H]4O[C@@H](CN)[C@@H](O)[C@H](O)[C@H]4N)nn3)c2)n1
AGS [3]
  inhibition: 100%
[4]
  IC50: 2.42 µM

## CN(C)CCCn1cc(CNC(=O)Cc2csc(NC(=O)Cc3csc(N)n3)n2)nn1
[5]
  DC50: 1.5 µM
[6]
  Kd: 0.54 µM

## NC[C@H]1O[C@H](O[C@H]2[C@H](O)[C@@H](O[C@H]3O[C@H](CNC(=O)CCC(=O)N[C@@H](Cc4ccccc4)C(=O)N[C@@H](CS)C(N)=O)[C@@H](O)[C@H](N)[C@H]3O)[C@H](N)C[C@@H]2N)[C@H](O)[C@@H](O)[C@@H]1O
[7]
  Activity: 140%
[8]
  Kd: 0.00436 µM

## NC[C@@H]1O[C@H](O[C@H]2[C@@H](O)[C@H](O[C@@H]3[C@@H](O)[C@H](N)C[C@H](N)[C@H]3O[C@H]3O[C@H](CN)[C@@H](O)[C@H](O)[C@H]3N)O[C@@H]2CSCCNC(=O)CCCCCn2cc(COc3ccc4c(c3)C(=O)N(O)C(=O)C4)nn2)[C@H](N)[C@@H](O)[C@@H]1O
[9]
  inhibition: 90%

## CCCN(CC(=O)N(CCC)CC(=O)N(CCC)CC(=O)N(CC(=O)NCCOCCOCCOCCOc1ccc(/C=C2\SC(Nc3ccccc3)=C(C(=O)OCC)C2=O)cc1O)Cc1cn(CCCNC(=O)CCCOc2ccc(-c3nc4ccc(-c5ccc(N6CCN(C)CC6)cc5)cc4[nH]3)cc2)nn1)C(=O)CNCc1cn(CCCNC(=O)CCCOc2ccc(-c3nc4ccc(-c5ccc(N6CCN(C)CC6)cc5)cc4[nH]3)cc2)nn1
MDA-MB-231
  inhibition: 50%
[10]
  IC50: 0.05 µM
A549
  inhibition: 50%
A-375
  inhibition: 50%

## CCn1cc(C(=O)NC(C)(C)C)c(=O)c2cc(F)c(N3CCNCC3)nc21
HEK293 [11]
  inhibition: 20%

## C#CCNC(=O)c1ccc(NC(=O)c2ccccc2Br)cc1
HeLa [12]
  Activity: 24%
[13]
  Activity: 13%

## Cc1ccccc1NCC(O)Cn1c2ccc(Br)cc2c2cc(Br)ccc21 (stereo unspecified)
[9]
  inhibition: 47%

## CN(C)CCCn1cc(CNC(=O)c2csc(NC(=O)c3csc(NC(=O)c4csc(N)n4)n3)n2)nn1
[5]
  DC50: 10.6 µM
[6]
  Kd: 6.7 µM

## c1cc(C2=NCCN2)ccc1Oc1ccc(-c2cc3ccc(C4=NCCN4)cc3[nH]2)cc1
[14]
  Activity: 40%

## CCn1cc(C(=O)O)c(=O)c2cc(F)c(N3CCNCC3)nc21
HEK293 [11]
  inhibition: 100%
HEK293 [15]
  inhibition: 100%
HEK293 [16]
  inhibition: 150%

## COc1ccc(NCC(O)Cn2c3ccc(Br)cc3c3cc(Br)ccc32)cc1 (stereo unspecified)
[9]
  inhibition: 59%

## N#Cc1ccc(Nc2ccc(-c3nc4ccc(C#N)cc4[nH]3)cc2)cc1
[14]
  Activity: 40%

## c1cc(C2=NCCN2)ccc1Oc1ccc(-c2nc3ccc(C4=NCCN4)cc3[nH]2)cc1
[14]
  Activity: 40%

## C#CCOc1ccc(-c2noc(-c3nnn(-c4cccc(/C(C)=N/O)c4)c3N)n2)cc1
A498
  IC50: 100 µM
HeLa [17]
  RLU: 2.19
[18]
  IC50: 3.3 µM

## CCn1cc(C(=O)NCc2ccccc2)c(=O)c2cc(F)c(N3CCNCC3)nc21
HEK293 [11]
  inhibition: 30%

## NC[C@@H]1O[C@H](O[C@H]2[C@@H](O)[C@H](O[C@@H]3[C@@H](O)[C@H](N)C[C@H](N)[C@H]3O[C@H]3O[C@H](CN)[C@@H](O)[C@H](O)[C@H]3N)O[C@@H]2Cn2cc(CCC(=O)Nc3ccc(-c4csc(NC(=O)c5ccc(Cl)cc5)n4)cc3)nn2)[C@H](N)[C@@H](O)[C@@H]1O
AGS [19]
  inhibition at 25 µM: 50%
[20]
  IC50: 2.19 µM
[21]
  IC50: 0.98 µM

## NC[C@@H]1O[C@H](O[C@H]2[C@@H](O)[C@H](O[C@@H]3[C@@H](O)[C@H](N)C[C@H](N)[C@H]3O[C@H]3O[C@H](CN)[C@@H](O)[C@H](O)[C@H]3N)O[C@@H]2Cn2cc(CCC(=O)Nc3ccc(-c4csc(NC(=O)c5ccc(N)cc5)n4)cc3)nn2)[C@H](N)[C@@H](O)[C@@H]1O
[20]
  IC50: 1.1 µM
[21]
  IC50: 1.08 µM

## O=S(=O)(c1ccc2c(c1)CCCN2)N1CCC[C@@H]2CCCC[C@H]21
Hepatitis C virus
  Activity: 47%
[22]
  Activity: 45%

## Cc1ccc2ccc(NC(=O)CCN(CCCCCCCCN(CCC(=O)Nc3ccc4ccc(C)nc4n3)CCC(=O)Nc3ccc4ccc(C)nc4n3)CCC(=O)Nc3ccc4ccc(C)nc4n3)nc2n1
[23]
  Activity: 15%
HeLa [24]
  Activity: 21%
[25]
  Activity: 13%
HeLa [26]
  Activity: 0.35%
HeLa [27]
  Activity: 0.32%

## O=C(Nc1ccc2ccccc2c1)c1ccc(Cl)cc1Cl
Hepatitis C virus
  Activity: 48%
[22]
  Activity: 72%

## CNC(=O)c1cc(Oc2ccc(NC(=O)Nc3ccc(Cl)c(C(F)(F)F)c3)c(F)c2)ccn1 [REGORAFENIB]
[28]
  Kd: 0.73 µM

## CC(=O)Nc1nc(-c2cccc(NC(=O)C(CNC(=O)[C@@H](N)CCCNC(=N)N)NC(=O)[C@@H](N)CCCNC(=N)N)c2)cs1 (stereo partly specified)
[29]
  Kd: 2.4 µM

## CCCN(CC(=O)N(CCC)CC(=O)N(CCC)CC(=O)N(CC(=O)O)Cc1cn(CCCNC(=O)CCCOc2ccc(-c3nc4ccc(-c5ccc(N6CCN(C)CC6)cc5)cc4[nH]3)cc2)nn1)C(=O)CNCc1cn(CCCNC(=O)CCCOc2ccc(-c3nc4ccc(-c5ccc(N6CCN(C)CC6)cc5)cc4[nH]3)cc2)nn1
[30]
  Kd: 0.98 µM

## CNc1ccc(C2c3ccccc3N=C(NCCCNCCCCNCCCN)C2(C)C)cc1 (stereo unspecified)
[31]
  Kd: 0.15 µM
[32]
  IC50: 1.06 µM

## C#CCNC(=O)c1ccc(/N=N/c2ccccc2)cc1
[33]
  inhibition: 78%
[34]
  inhibition: 11%
